What is called IC50 is the midpoint of a concentration-inhibition curve. A low value points to greater potency in that assay.

In US20240279237A1, “FUSED BICYCLIC HETEROARYL COMPOUNDS USEFUL AS NLRP3 INHIBITORS” (Hoffmann-La Roche Inc., priority 2021, published 2024) one finds IC50 data, which are given here for 29 compounds.

Counter-ions that a name gives are not always drawn.

The target in this assay is T1, NLRP3 (Homo sapiens, UniProt Q96P20).
T1 construct: Seed THP-1 cells (25,000 cells/well) containing 1.0 μg/ml LPS in 40 μl of RPMI medium; host or cells: THP-1 cells
T1 sequence (Q96P20 whole entry): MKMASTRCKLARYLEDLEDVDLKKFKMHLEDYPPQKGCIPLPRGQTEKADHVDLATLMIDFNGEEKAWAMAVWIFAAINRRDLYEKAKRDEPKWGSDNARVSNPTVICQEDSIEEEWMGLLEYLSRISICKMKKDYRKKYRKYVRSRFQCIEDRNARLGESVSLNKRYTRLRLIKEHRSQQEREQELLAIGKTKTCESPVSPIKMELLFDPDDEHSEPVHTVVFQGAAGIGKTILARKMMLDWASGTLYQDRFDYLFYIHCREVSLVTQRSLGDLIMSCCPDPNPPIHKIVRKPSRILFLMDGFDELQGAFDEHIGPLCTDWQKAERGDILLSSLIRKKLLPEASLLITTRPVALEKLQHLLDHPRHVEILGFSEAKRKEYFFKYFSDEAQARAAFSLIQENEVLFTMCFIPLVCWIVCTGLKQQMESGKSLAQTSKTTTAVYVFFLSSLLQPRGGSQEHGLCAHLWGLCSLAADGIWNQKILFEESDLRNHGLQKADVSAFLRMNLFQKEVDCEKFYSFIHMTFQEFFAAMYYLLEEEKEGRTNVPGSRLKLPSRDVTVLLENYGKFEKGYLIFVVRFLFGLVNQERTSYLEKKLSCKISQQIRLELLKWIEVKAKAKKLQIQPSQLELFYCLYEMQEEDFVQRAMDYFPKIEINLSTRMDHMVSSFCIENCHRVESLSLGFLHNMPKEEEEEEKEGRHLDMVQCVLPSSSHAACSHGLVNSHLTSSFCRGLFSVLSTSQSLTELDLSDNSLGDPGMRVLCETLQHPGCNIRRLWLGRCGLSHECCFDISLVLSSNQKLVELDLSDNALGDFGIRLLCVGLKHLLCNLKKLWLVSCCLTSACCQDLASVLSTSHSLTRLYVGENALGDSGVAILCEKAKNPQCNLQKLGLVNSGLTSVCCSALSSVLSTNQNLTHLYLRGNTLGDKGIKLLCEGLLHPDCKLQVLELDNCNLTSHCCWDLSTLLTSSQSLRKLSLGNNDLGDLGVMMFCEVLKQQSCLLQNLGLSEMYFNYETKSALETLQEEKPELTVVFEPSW
In words: THP-1 Cells Pyroptosis Assay. Type of assay: cell-based. To be noted: THP-1 cells with 1.0 μg/ml LPS; compound 3 hours; nigericin 5 μM 1 hr; resazurin readout. The gist of the method: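 THP-1 cells in serum-free RPMI primed with LPS (1 μg/ml FAC), incubated with compound 3 h at 37 °C, then nigericin (5 μM FAC) for 1 h. Supernatant removed after spin; viability read by resazurin (100 μM FAC) reduction after a further 1-2 h at 37 °C.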
`CCN1CCC[C@@H](Nc2nc3nc(-c4c(O)cc(C#N)cc4COC)ccc3o2)C1` [Example 110, 4-[2-[[(3R)-1-Ethyl-3-piperidyl]amino]oxazolo[4,5-b]pyridin-5-yl]-3-hydroxy-5-(methoxymethyl)benzonitrile;2,2,2-trifluoroacetic acid] showed a half-maximal inhibitory concentration (IC50) of 5.8 nM.
Consider `Cc1cc(Cl)cc(O)c1-c1ccc2oc(N[C@@H]3CCCN(CCC(F)F)C3)nc2n1` [Example 74, 5-Chloro-2-[2-[[(3R)-1-(3,3-difluoropropyl)-3-piperidyl]amino]oxazolo[4,5-b]pyridin-5-yl]-3-methyl-phenol], for which the half-inhibitory concentration (IC50) worked out at 9.2 nM.
In turn, `CCN1CCC[C@@H](Nc2nc3nc(-c4c(O)cc(F)cc4Cl)ccc3o2)C1` [Example 129, 3-Chloro-2-[2-[[(3R)-1-ethyl-3-piperidyl]amino]oxazolo[4,5-b]pyridin-5-yl]-5-fluoro-phenol;2,2,2-trifluoroacetic acid] had an IC50 of 1.7 nM.
In turn, `Cc1cc(Cl)cc(O)c1-c1ccc2oc(N[C@@H]3CCCN(CC4CC(O)C4)C3)nc2n1` (stereo partly drawn) [Example 75, 5-Chloro-3-methyl-2-[2-[[(3R)-1-[(3-hydroxycyclobutyl)methyl]-3-piperidyl]amino]oxazolo-[4,5-b]pyridin-5-yl]phenol] registered an IC50 of 20.8 nM.
The same measure for `CCN1CCC[C@@H](Nc2nc3nc(-c4c(C)cc(C#N)cc4O)ccc3o2)C1` [Example 25, 4-[2-[[(3R)-1-Ethyl-3-piperidyl]amino]oxazolo[4,5-b]pyridin-5-yl]-3-hydroxy-5-methyl-benzonitrile]: 1.6 nM; for `CCN1CCC[C@@H](Nc2nc3nc(-c4c(O)cccc4C#N)ccc3o2)C1` [Example 119, 2-[2-[[(3R)-1-Ethyl-3-piperidyl]amino]oxazolo[4,5-b]pyridin-5-yl]-3-hydroxy-benzonitrile]: 23 nM.
Under `Cc1cc(C(F)(F)F)cc(O)c1-c1cc(C(C)(C)O)c2oc(N[C@@H]3CCCN(C)C3)nc2n1` [Example 105, 2-[7-(1-Hydroxy-1-methyl-ethyl)-2-[[(3R)-1-methyl-3-piperidyl]amino]oxazolo[4,5-b]pyridin-5-yl]-3-methyl-5-(trifluoromethyl)phenol;2,2,2-trifluoroacetic acid] stands 8.9 nM; under `Cc1cc(C(F)(F)F)cc(O)c1-c1ccc2oc(N3CC[C@H]4CCN(C)C[C@H]43)nc2n1` (single isomer, unassigned) [Example 37B, 2-[2-[(3aR,7aS)-6-methyl-3,3a,4,5,7,7a-hexahydro-2H-pyrrolo[2,3-c]pyridin-1-yl]oxazolo[4,5-b]pyridin-5-yl]-3-methyl-5-(trifluoromethyl)-phenol or 2-[2-[(3aS,7aR)-6-Methyl-3,3a,4,5,7,7a-hexahydro-2H-pyrrolo[2,3-c]pyridin-1-yl]oxazolo[4,5-b]pyridin-5-yl]-3-methyl-5-(trifluoromethyl)phenol], 1.1 nM; under `Cc1cc(C#N)cc(O)c1-c1ccc2oc(NC3CCCN4CCCC34)nc2n1` (racemic) [Example 29, (rac)-4-[2-(1,2,3,5,6,7,8,8a-Octahydroindolizin-8-ylamino)oxazolo[4,5-b]pyridin-5-yl]-3-hydroxy-5-methyl-benzonitrile], 5.1 nM.
Under `CCN1C[C@@H](F)C[C@@H](Nc2nc3nc(-c4c(C)cc(Cl)cc4O)ccc3o2)C1` [Example 54, 5-Chloro-2-[2-[[(3R,5S)-1-ethyl-5-fluoro-3-piperidyl]amino]oxazolo[4,5-b]pyridin-5-yl]-3-methyl-phenol] stands 10.1 nM.
Regarding `Cc1cc(C(F)(F)F)cc(O)c1-c1ccc2oc(N3CCOCC3CN(C)C)nc2n1` (single isomer, unassigned) [Example 2A, 2-[2-[(3R or 3S)-3-[(Dimethylamino)methyl]morpholin-4-yl]oxazolo[4,5-b]pyridin-5-yl]-3-methyl-5-(trifluoromethyl)phenol], the IC50 amounted to 129 nM.
Take `COCCCN1CCC[C@@H](Nc2nc3nc(-c4c(C)cc(Cl)cc4O)ccc3o2)C1` [Example 96, 5-Chloro-2-[2-[[(3R)-1-(3-methoxypropyl)-3-piperidyl]amino]oxazolo[4,5-b]pyridin-5-yl]-3-methyl-phenol]: the midpoint of inhibition, the IC50, lay at 56.1 nM.
Under `Cc1cc(Cl)cc(O)c1-c1ccc2oc(NC3CCC(CO)N(C)C3)nc2n1` (centres unmarked) [Example 87, 5-Chloro-2-[2-[[6-(hydroxymethyl)-1-methyl-3-piperidyl]amino]oxazolo[4,5-b]pyridin-5-yl]-3-methyl-phenol;2,2,2-trifluoroacetic acid] stands 75.6 nM.
Turning to `Cc1cc(C(F)(F)F)cc(O)c1-c1ccc2oc(N3CC4COCC4C3)nc2n1` (centres unmarked) [Example 62, 2-[2-(1,3,3a,4,6,6a-Hexahydrofuro[3,4-c]pyrrol-5-yl)oxazolo[4,5-b]pyridin-5-yl]-3-methyl-5-(trifluoromethyl)phenol], the IC50 came to 84.8 nM.
In turn, `CC(=O)c1cc(-c2c(C)cc(C(F)(F)F)cc2O)nc2nc(N[C@@H]3CCCN(C)C3)oc12` [Example 102, 1-[5-[2-Hydroxy-6-methyl-4-(trifluoromethyl)phenyl]-2-[[(3R)-1-methyl-3-piperidyl]amino]oxazolo[4,5-b]pyridin-7-yl]ethanone;2,2,2-trifluoroacetic acid] displayed an IC50 of 6.5 nM.
With `Cc1cc(Cl)cc(O)c1-c1ccc2oc(N[C@@H]3CCCN(C[C@@H]4CC[C@H]4O)C3)nc2n1` (racemic) [Example 118A, 5-chloro-2-[2-[[(3R)-1-[[rac trans-2-hydroxycyclobutyl]methyl]-3-piperidyl]amino]oxazolo[4,5-b]pyridin-5-yl]-3-methyl-phenol or 5-chloro-2-[2-[[(3R)-1-[[rac cis-2-hydroxycyclobutyl]methyl]-3-piperidyl]amino]oxazolo[4,5-b]pyridin-5-yl]-3-methyl-phenol], the IC50 came out at 50.8 nM.
In turn, `Cc1cc(Cl)cc(O)c1-c1ccc2oc(N[C@@H]3CCCN(CCCO)C3)nc2n1` [Example 95, 5-Chloro-2-[2-[[(3R)-1-(3-hydroxypropyl)-3-piperidyl]amino]oxazolo[4,5-b]pyridin-5-yl]-3-methyl-phenol] returned an IC50 of 11.2 nM.
The same measure for `CN1CCCC(Nc2nc3nc(-c4c(O)cc(C(F)(F)F)cc4C(F)F)ccc3o2)C1` [Example 30, 3-(Difluoromethyl)-2-[2-[[(3R)-1-methyl-3-piperidyl]amino]oxazolo[4,5-b]pyridin-5-yl]-5-(trifluoromethyl)phenol;2,2,2-trifluoroacetic acid salt]: 4.5 nM; for `Cc1cc(S(C)(=O)=O)cc(O)c1-c1ccc2oc(N[C@@H]3CCCN(C)C3)nc2n1` [Example 89, 3-Methyl-2-[2-[[(3R)-1-methyl-3-piperidyl]amino]oxazolo[4,5-b]pyridin-5-yl]-5-methylsulfonyl-phenol;2,2,2-trifluoroacetic acid]: 536 nM.
Consider `Cc1cc(C(F)(F)F)cc(O)c1-c1ccc2oc(N3CCOCC3CN(C)C)nc2n1` (racemic) [Example 2, (rac)-2-[2-[3-[(Dimethylamino)methyl]morpholin-4-yl]oxazolo[4,5-b]pyridin-5-yl]-3-methyl-5-(trifluoromethyl)phenol], for which the IC50 was 17.4 nM.
Under `CCN1CCC(Nc2nc3nc(-c4c(C)cc(C(F)(F)F)cc4O)ccc3o2)C1` (centres unmarked) [Example 131, 2-[2-[(1-Ethylpyrrolidin-3-yl)amino]oxazolo[4,5-b]pyridin-5-yl]-3-methyl-5-(trifluoromethyl)phenol] stands 9.6 nM; under `CCN1C[C@H](O)C[C@@H](Nc2nc3nc(-c4c(C)cc(C#N)cc4O)ccc3o2)C1` [Example 71, 4-[2-[[(3R,5R)-1-Ethyl-5-hydroxy-3-piperidyl]amino]oxazolo[4,5-b]pyridin-5-yl]-3-hydroxy-5-methyl-benzonitrile], 1.1 nM.
The same measure for `CCN1CCC[C@@H](Nc2nc3nc(-c4c(C)cc(C(F)F)cc4O)ccc3o2)C1` [Example 122, 5-(Difluoromethyl)-2-[2-[[(3R)-1-ethyl-3-piperidyl]amino]oxazolo[4,5-b]pyridin-5-yl]-3-methyl-phenol;2,2,2-trifluoroacetic acid]: 1 nM; for `Cc1cc(Cl)cc(O)c1-c1ccc2oc(N[C@@H]3CCCN(C4CCC4)C3)nc2n1` [Example 47, 5-Chloro-2-[2-[[(3R)-1-cyclobutyl-3-piperidyl]amino]oxazolo[4,5-b]pyridin-5-yl]-3-methyl-phenol]: 1.2 nM.
The same measure for `Cc1cc(C#N)cc(O)c1-c1ccc2oc(N[C@@H]3C[C@H](O)CN(C)C3)nc2n1` [Example 56, 3-Hydroxy-4-[2-[[(3R,5S)-5-hydroxy-1-methyl-3-piperidyl]amino]oxazolo[4,5-b]pyridin-5-yl]-5-methyl-benzonitrile]: 18.9 nM; for `Cc1ccc(C)c(-c2ccc3oc(N[C@@H]4CCCN(C)C4)nc3n2)c1O` [Example 69, 3,6-Dimethyl-2-[2-[[(3R)-1-methyl-3-piperidyl]amino]oxazolo[4,5-b]pyridin-5-yl]phenol]: 2.7 nM.
Compound `CN1CCC[C@@H](Nc2nc3nc(-c4c(O)cc(F)cc4C(F)(F)F)ccc3o2)C1` [Example 126, 5-Fluoro-2-[2-[[(3R)-1-methyl-3-piperidyl]amino]oxazolo[4,5-b]pyridin-5-yl]-3-(trifluoromethyl)phenol;2,2,2-trifluoroacetic acid] came in with an IC50 of 3.9 nM.
Consider `Cc1cc(C(F)(F)F)cc(O)c1-c1ccc2oc(N[C@@H]3CCCN(CCO)C3)nc2n1` [Example 52, 2-[2-[[(3R)-1-(2-Hydroxyethyl)-3-piperidyl]amino]oxazolo[4,5-b]pyridin-5-yl]-3-methyl-5-(trifluoromethyl)phenol], for which the IC50 is 2.3 nM.
Compound `Cc1cc(C(F)(F)F)cc(O)c1-c1ccc2oc(NC3CCOC3)nc2n1` (racemic) [Example 38, (rac)-3-Methyl-2-[2-(tetrahydrofuran-3-ylamino)oxazolo[4,5-b]pyridin-5-yl]-5-(trifluoromethyl)phenol] registered an IC50 of 85.3 nM.
